In PubChem BioAssay AID1918957 (Molecular Pharmacology Branch, DTP, NCI, 2023) one finds viability, T/C and IC50 data, which are given here for nine compounds.

“And” between values parts separate entries of the source, which are not always exact repeats. Equal values may be shown once.

In this experiment the test system is NCI-H1876 complex spheroid viability. Briefly: Anticancer human tumor NCI-H1876 cell line growth inhibition [LSD1].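 On all read-outs here: spheroids exposed to compounds for one week before readout.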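 On viability, T/C: 100% = DMSO vehicle-treated spheroids so lower means fewer viable cells.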 The following applies: for viability, T/C: stronger effect = lower value; for IC50: curve of compound. The text has this: Multicellular complex tumor spheroid response to LSD1 Inhibitor Iadademstat in combination with a variety of drugs and investigational agents in selected tumor cell lines
The current study was undertaken to assess response to LSD1 inhibitors in combination with standard-of-care drugs and investigational agents in solid tumor complex spheroid models as well as in the K-562 leukemia. Complex spheroids include a stromal component modeled by human endothelial cells (HUVEC) and fibroblasts modeled by human mesenchymal stem cells (MSCs). The concentration ranges selected for each drug and investigational agent were based upon clinically achievable concentrations if the clinical Cmax of the agent was known.
Compounds. The drugs and investigational agents used in this study are listed on Table 1. All of the agents used, including staurosporine (NSC755774) and gemcitabine (NSC613327), were obtained from the Developmental Therapeutics Program, NCI. FDA-approved anticancer drugs are available from the NCI at http://dtp.nci.nih.gov/branches/dscb/oncology_drugset_explanation.html. Drugs and investigational agents were >95% pure by proton nuclear magnetic resonance (NMR) and liquid chromatography/mass spectrometry (LC/MS). Stock solutions were prepared at 400x in DMSO, stored at -70 degrees C, and diluted in fresh medium prior to their use. The final concentration of DMSO in cell culture wells never exceeded 0.25% (v/v). The FDA-approved anticancer drug set is available from the Developmental Therapeutics Program at https://dtp.cancer.gov/organization/dscb/obtaining/available_plates.htm. All drugs and investigational agents were tested over a range starting from a high concentration at or near the clinical Cmax and decreasing in half-log increments. If the clinical Cmax for an agent had not been determined, the highest concentration tested was 10 microM.
Cell Lines. The patient-derived cancer cell (PDC) lines: 292921-168-R-J2-PDC, K24384-001-R-PDC, and 521955-158-R2-J5-PDC pancreatic carcinomas, 556581-035-R-J1 ovarian carcinoma, 324938-238-R-J1-PDC, 855422-203-R-J1-PDC and 883617-216-R-J1-PDC urothelial bladder carcinomas, 743489-274-T-PDC renal cell carcinoma, 138582-R-J1 Merkel cell tumor, K60290-347-R-J1 and K57222-313-R-J1-PDC glioblastomas, 653999-131-R-J2-PDC, LG0703-F948-PDC, and 349418-098-R-PDC non-small cell lung carcinomas, 885512-296-R-J2-PDC, 171881-019-R-J1-PDC breast carcinomas and 186277-243-T-J2-PDC and 233499-124-R-J2-PDC colon carcinomas were obtained from the NCI Patient-Derived Models Repository (PDMR, https://pdmr.cancer.gov). The established cell lines NCI/ADR-RES (RRID:CVCL_14520 and OVCAR-5 (RRID:CVCL_1628) ovarian carcinomas, 786-O (RRID:CVCL_1051) and A498 (RRID:CVCL_A498) renal cell carcinoma, NCI-H211 (ATCC, cat. CRL-5824; RRID:CVCL_1529), NCI-H196 (ATCC, cat. CRL-5823, RRID:CVCL_1509), SW 1271 (ATCC, cat. CRL-2177, RRID:CVCL_1716) and NCI-H1876 (ATCC, cat. CRL-5902, RRID:CVCL_1503) small cell lung carcinomas, MDA-MB-231 (RRID:CVCL_0062) and MDA-MB-468 (RRID:CVCL_0419)breast carcinomas (10-12). Pooled donor human umbilical vein endothelial cells (HUVEC, Lonza, cat. CC-2519) and human mesenchymal stem cells (hMSC, Lonza, cat. PT-2501) were purchased from Lonza (Walkersville, MD).
Cell Culture. All cells were maintained in an incubator at 37 degrees C and 5% CO2 with 95% humidity. The PDC lines were cultured according to standard operating procedures established by the NCI PDMR (https://pdmr.cancer.gov). Briefly all PDCs were thawed and cultured in Matrigel-coated flasks prepared with a working solution of 1X Ham's F-12 nutrient mix, without supplementation (Invitrogen, Waltham, MA, cat. 11765054), 100 U/mL penicillin-streptomycin (Invitrogen, cat. 15140122), and 2.5% Matrigel (Corning Inc., Corning, NY, cat. 354248) for the first three passages. […]

For the compound `Cn1ncnc1C1c2n[nH]c(=O)c3cc(F)cc(c23)NC1c1ccc(F)cc1` (stereo not drawn), the IC50 was more than 100 nM. Besides, the viability, T/C (compound 0.000316 µM) was 100% and 104%. Moreover, under “compound 0.001 µM”, the viability, T/C was 95% and 107%. The viability, T/C (compound 0.00316 µM) was 107% and 100%. In addition, under “compound 0.01 µM”, the viability, T/C was 107% and 100%. In addition, the viability, T/C (compound 0.0316 µM) was 94.9% and 93.5%. Further, the viability, T/C (compound 0.1 µM) was 93.8% and 79.9%.

On to `NS(=O)(=O)OCC1CC(n2ccc3c(NC4CCc5ccccc54)ncnc32)CC1O` (stereo not drawn), for which the IC50 was 165 nM and 150 nM. The viability, T/C (compound 0.00949 µM) was 84.9% and 85.4%. The viability, T/C (compound 0.03 µM) is 66.2% and 63.6%. In addition, for the setting “compound 0.0949 µM”, the viability, T/C is 56.7% and 51.4%. Besides, the viability, T/C (compound 0.3 µM) is 43.3% and 49.8%. The viability, T/C (compound 0.949 µM) is 39% and 40.2%. For the same compound, the viability, T/C (compound 3 µM) was 32.8% and 39%.

As to `Nc1ccccc1NC(=O)c1ccc(CNC(=O)OCc2cccnc2)cc1`, the IC50 is 176 nM and 77.3 nM. In addition, the viability, T/C (compound 0.00949 µM) is 103% and 93.5%. Besides, the viability, T/C (compound 0.03 µM) is 97.7% and 77.7%. For the same compound, the viability, T/C (compound 0.0949 µM) is 79.1% and 44.3%. Besides, the viability, T/C (compound 0.3 µM) is 24.9% and 14%. Moreover, the viability, T/C (compound 0.949 µM) is 10.3% and 4.22%. For the same compound, where the note is “compound 3 µM”, the viability, T/C was 8.9% and 0.64%.

As to `Nc1ccn(C2OC(CO)C(O)C2(F)F)c(=O)n1` (stereo not drawn), the IC50 is 3.7 nM and 5.87 nM. Where the note is “compound 0.000949 µM”, the viability, T/C is 98.6% and 98.7%. Also, under “compound 0.003 µM”, the viability, T/C is 53.8% and 86.9%. Also, the viability, T/C (compound 0.00949 µM) was 29.2% and 23.5%. In addition, the viability, T/C (compound 0.03 µM) was 23.6% and 9.68%. Also, the viability, T/C (compound 0.0949 µM) is 11.3% and 8.77%. The viability, T/C (compound 0.3 µM) was 10.5% and 7.09%.

In the case of `Nc1ncn(C2CC(O)C(CO)O2)c(=O)n1` (stereo not drawn), the IC50 is more than 1000 nM. Moreover, the viability, T/C (compound 0.00316 µM) is 97.2% and 101%. Besides, for the setting “compound 0.01 µM”, the viability, T/C is 96.9% and 105%. Besides, the viability, T/C (compound 0.0316 µM) was 102% and 103%. In addition, where the note is “compound 0.1 µM”, the viability, T/C was 97.4% and 97%. Also, the viability, T/C (compound 0.316 µM) is 86.7% and 106%. For the same compound, the viability, T/C (compound 1 µM) is 86% and 83.6%.

With `Nc1ncn(C2CC(O)C(CO)S2)c(=O)n1` (stereo not drawn), the IC50 is more than 300 nM. For the same compound, under “compound 0.000949 µM”, the viability, T/C was 105% and 97.8%. Moreover, the viability, T/C (compound 0.003 µM) was 96.8% and 99.5%. Also, the viability, T/C (compound 0.00949 µM) was 100% and 95.5%. For the same compound, under “compound 0.03 µM”, the viability, T/C was 81.2% and 81.3%. Under “compound 0.0949 µM”, the viability, T/C is 83.2% and 71.1%. Besides, under “compound 0.3 µM”, the viability, T/C was 59.5% and 50.1%.

On to `O=C(C=Cc1cccc(S(=O)(=O)Nc2ccccc2)c1)NO`, for which the IC50 is 176 nM and 156 nM. Besides, under “compound 0.00949 µM”, the viability, T/C was 101% and 104%. In addition, the viability, T/C (compound 0.03 µM) is 98.9% and 104%. Besides, the viability, T/C (compound 0.0949 µM) is 75.1% and 73.1%. Besides, the viability, T/C (compound 0.3 µM) was 27.6% and 19.1%. In addition, under “compound 0.949 µM”, the viability, T/C was 9.32% and 8.04%. The viability, T/C (compound 3 µM) is 2.33% and 0.42%.

Consider `O=C(C=Cn1cnc(-c2cc(C(F)(F)F)cc(C(F)(F)F)c2)n1)NNc1cnccn1`, for which the IC50 is 94.9 nM and 79.1 nM. Further, the viability, T/C (compound 0.00316 µM) is 99.2% and 92.7%. In addition, the viability, T/C (compound 0.01 µM) was 91% and 89.3%. In addition, the viability, T/C (compound 0.0316 µM) was 84.4% and 80%. Further, the viability, T/C (compound 0.1 µM) was 47.8% and 42%. For the same compound, the viability, T/C (compound 0.316 µM) was 23.1% and 16.6%. For the same compound, the viability, T/C (compound 1 µM) was 16.3% and 9.98%.

As to `O=C(c1cc(Cc2n[nH]c(=O)c3ccccc23)ccc1F)N1CCN(C(=O)C2CC2)CC1`, the IC50 was 5540 nM and 6100 nM. For the same compound, the viability, T/C (compound 0.0316 µM) is 99.1% and 93.9%. Also, the viability, T/C (compound 0.1 µM) was 96% and 96.3%. Moreover, the viability, T/C (compound 0.316 µM) is 91.3% and 97.4%. Further, the viability, T/C (compound 1 µM) is 85.9% and 91.3%. Moreover, the viability, T/C (compound 3.16 µM) was 65.4% and 68.3%. For the same compound, for the setting “compound 10 µM”, the viability, T/C is 33.4% and 36.2%.

One may read the viability, T/C as the result in the treated group divided by that in the control group, in per cent. The term IC50 denotes the concentration that gives 50% inhibition.
